Converted amounts (≈) assume the structure as drawn. “And” between values parts separate entries of the source, which are not always exact repeats. Equal entries are not always repeated. Where two headings read alike, the source gives them in different places.
Columns and labels:
Type in all cases: cell-based, human
SMMC-7721 = experiment: MTT survival assay, liver cancer cell line (SMMC-7721); conditions: SMMC-7721 Experiment #2; for IC50: Homo sapiens
How it was run: (§1)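 Cells seeded at 3-5×10^4/ml in RPMI1640 or MEM with 10% FBS, treated next day with test articles for 68 h at 37 C in triplicate, then MTT (1 mg/ml) for 4 h. Formazan dissolved in DMSO, read at 570 nm; inhibition vs. untreated control, IC50 by Bliss method.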

Hela cells = experiment: MTT survival assay, cervical cancer line (Hela cells); conditions: for IC50: Homo sapiens
How it was run: as §1

MCF-7 = experiment: MTT survival assay, breast cancer cell line (MCF-7); conditions: for IC50: Homo sapiens
How it was run: as §1

HCT116 = experiment: MTT survival assay, colon cancer cell line (HCT116); conditions: for IC50: Homo sapiens
Protocol: The effect of the above identified compounds on anti-tumor activity in human carcinoma cells was determined by the MTT survival assay. The MTT assay is a commonly used method in evaluation of cell survival, based on the ability of viable cells to convert MTT (MTT, Sigma, Cat No. 044K5307), a soluble tetrazolium salt [3-(4,5-dimethylthuazole-2-yl)-2,5 diphenyl tetrazolium bromide], into an insoluble formazan precipitate, which is quantitated by spectrophotometry following solubilization in dimethyl sulfoxide (DMSO).
In brief, different carcinoma cells were treated with negative control, various test articles at different concentration, and positive control (DDP), in 96-well tissue culture dishes. Each test article at different concentration is repeated 3 times.
Different carcinoma cells were diluted with 10% FBS and RPM1640 or MEM media to a concentration of 3-5×10^4 per ml suspension. 100 microliter of cells were incubated in each well in 96-well tissue culture dishes at 37 C. The cells were incubated at 37 C on the first day. On the second day, media supernatant was removed and replaced with media and different concentration of test articles (100 microliter in each well). Three Negative control wells and three positive control (DDP) wells were also included. The 96-well plate were incubated at 37 C for another 68 hours. After 68 hours, supernatant of each well was removed. 100 microliter of 1 mg/ml MTT diluted in PBS was injected into each well. The cells were incubated at 37 C for another 4 hours. The cells were then solubilized in 150 microliter DMSO, mixed for 10 minutes and absorbance readings were taken using Microplate reader Bio-Rad Model 550 at 570 nm. IR (cell growth inhibition rate) % was calculated as (OD570 of negative control-OD570 with test article)/OD570 of negative control. IC50 (cell 50% inhibition concentration) at 95% confidence level was calculated with Bliss method.

SKOV3 = experiment: MTT survival assay, ovarian cancer cell line (SKOV3); conditions: SKOV3 (second table)
How it was run: as §1

U251 = experiment: MTT survival assay, glioma cell line (brain tumor U251); conditions: U251 (second table)
How it was run: as §1

A459 = experiment: MTT survival assay, lung cancer cell line (A459); conditions: A459 Experiment #2; for IC50: Homo sapiens
How it was run: as §1

[1] = 95% confidence limits of IC50, read-out: IC50 (95% confidence level), interval
[2] = Bliss method, unit not printed (concentrations in μg/ml), read-out: IC50 (95% confidence level)

O=C(CSc1cc(COc2ccc(Br)cc2)[nH]n1)c1ccccc1 [Mol 21]
IC50 (SMMC-7721; [1]): 9.32 to 9.71 µg/mL (≈ 23.1 to 24.1 µM)
IC50 (SMMC-7721; [2]): 9.52 µg/mL (≈ 23.6 µM)
IR (%) (SMMC-7721; 3.125 μg/ml): −49.9%
OD(A570 nm) (SMMC-7721; 3.125 μg/ml): 0.690 ± 0.603
IR (%) (SMMC-7721; 6.25 μg/ml): 65.1%
OD(A570 nm) (SMMC-7721; 6.25 μg/ml): 0.161 ± 0.085
IR (%) (SMMC-7721; 12.5 μg/ml): 68.3%
OD(A570 nm) (SMMC-7721; 12.5 μg/ml): 0.146 ± 0.041
IR (%) (SMMC-7721; 25 μg/ml): 72.0%
OD(A570 nm) (SMMC-7721; 25 μg/ml): 0.129 ± 0.006
IR (%) (SMMC-7721; 50 μg/ml): 82.9%
OD(A570 nm) (SMMC-7721; 50 μg/ml): 0.079 ± 0.005
IR (%) (SMMC-7721; 100 μg/ml): 83.2%
OD(A570 nm) (SMMC-7721; 100 μg/ml): 0.077 ± 0.009
IR (%) (Hela cells; 0.41 μg/ml): 10.0%
OD(A570 nm) (Hela cells; 0.41 μg/ml): 0.668 ± 0.049
OD(A570 nm) (Hela cells; 1.23 μg/ml): 0.785 ± 0.081
OD(A570 nm) (Hela cells; 3.70 μg/ml): 0.774 ± 0.066
IR (%) (Hela cells; 11.11 μg/ml): 35.4%
OD(A570 nm) (Hela cells; 11.11 μg/ml): 0.480 ± 0.035
IR (%) (Hela cells; 33.33 μg/ml): 73.8%
OD(A570 nm) (Hela cells; 33.33 μg/ml): 0.194 ± 0.031
IR (%) (Hela cells; 100 μg/ml): 82.5%
OD(A570 nm) (Hela cells; 100 μg/ml): 0.130 ± 0.039
IC50 (Hela cells; [1]): 18.8 to 26.4 µg/mL (≈ 46.6 to 65.6 µM)
IC50 (Hela cells; [2]): 22.2 µg/mL (≈ 55.1 µM)
IR (%) (MCF-7; 3.125 μg/ml): 12.5%
OD(A570 nm) (MCF-7; 3.125 μg/ml): 0.789 ± 0.064
IR (%) (MCF-7; 6.25 μg/ml): 30.9%
OD(A570 nm) (MCF-7; 6.25 μg/ml): 0.624 ± 0.008
IR (%) (MCF-7; 12.5 μg/ml): 61.6%
OD(A570 nm) (MCF-7; 12.5 μg/ml): 0.346 ± 0.022
IR (%) (MCF-7; 25 μg/ml): 89.1%
OD(A570 nm) (MCF-7; 25 μg/ml): 0.098 ± 0.006
IR (%) (MCF-7; 50 μg/ml): 92.4%
OD(A570 nm) (MCF-7; 50 μg/ml): 0.069 ± 0.006
IR (%) (MCF-7; 100 μg/ml): 92.1%
OD(A570 nm) (MCF-7; 100 μg/ml): 0.072 ± 0.007
IC50 (MCF-7; MCF7, 95% confidence limits of IC50, read-out: IC50 (95% confidence level), interval): 8.53 to 11.4 µg/mL (≈ 21.2 to 28.4 µM)
IC50 (MCF-7; MCF7, Bliss method, unit not printed (concentrations in μg/ml), read-out: IC50 (95% confidence level)): 9.93 µg/mL (≈ 24.6 µM)
IR (%) (HCT116; 3.125 μg/ml): 56.2% and 30.4%
OD(A570 nm) (HCT116; 6.25 μg/ml): 0.300 ± 0.050 and 0.394 ± 0.039
OD(A570 nm) (HCT116; 12.5 μg/ml): 0.150 ± 0.025 and 0.267 ± 0.035
IR (%) (HCT116; 25 μg/ml): 80.0% and 81.3%
OD(A570 nm) (HCT116; 25 μg/ml): 0.109 ± 0.006 and 0.101 ± 0.020
OD(A570 nm) (HCT116; 50 μg/ml): 0.083 ± 0.011 and 0.085 ± 0.004
IR (%) (HCT116; 100 μg/ml): 84.1% and 84.7%
OD(A570 nm) (HCT116; 100 μg/ml): 0.086 ± 0.012 and 0.083 ± 0.001
IC50 (HCT116; HCT-116, 95% confidence limits of IC50, read-out: IC50 (95% confidence level), interval): 2.99 to 3.33 µg/mL (≈ 7.42 to 8.26 µM)
IC50 (HCT116; HCT-116, Bliss method, unit not printed (concentrations in μg/ml), read-out: IC50 (95% confidence level)): 3.16 µg/mL (≈ 7.84 µM)
IC50 (SKOV3; Homo sapiens, SK-OV-3, Bliss method, unit not printed (concentrations in μg/ml), read-out: IC50 (95% confidence level)): 17.7 µg/mL (≈ 43.9 µM)
IR (%) (SKOV3; 3.125 μg/ml): 28.2%
OD(A570 nm) (SKOV3; 3.125 μg/ml): 0.503 ± 0.031
IR (%) (SKOV3; 6.25 μg/ml): 24.1%
OD(A570 nm) (SKOV3; 6.25 μg/ml): 0.532 ± 0.025
IR (%) (SKOV3; 12.5 μg/ml): 34.3%
OD(A570 nm) (SKOV3; 12.5 μg/ml): 0.460 ± 0.195
IR (%) (SKOV3; 25 μg/ml): 38.8%
OD(A570 nm) (SKOV3; 25 μg/ml): 0.429 ± 0.002
IR (%) (SKOV3; 50 μg/ml): 83.0%
OD(A570 nm) (SKOV3; 50 μg/ml): 0.119 ± 0.010
IR (%) (SKOV3; 100 μg/ml): 89.1%
OD(A570 nm) (SKOV3; 100 μg/ml): 0.077 ± 0.011
IC50 (U251; Homo sapiens, U-251, Bliss method, unit not printed (concentrations in μg/ml), read-out: IC50 (95% confidence level)): 16.2 µg/mL (≈ 40.3 µM)
IR (%) (U251; 3.125 μg/ml): 4.2%
OD(A570 nm) (U251; 3.125 μg/ml): 0.840 ± 0.013
IR (%) (U251; 6.25 μg/ml): 18.0%
OD(A570 nm) (U251; 6.25 μg/ml): 0.719 ± 0.110
IR (%) (U251; 12.5 μg/ml): 42.8%
OD(A570 nm) (U251; 12.5 μg/ml): 0.501 ± 0.058
IR (%) (U251; 25 μg/ml): 73.5%
OD(A570 nm) (U251; 25 μg/ml): 0.232 ± 0.034
IR (%) (U251; 50 μg/ml): 86.2%
OD(A570 nm) (U251; 50 μg/ml): 0.121 ± 0.019
IR (%) (U251; 100 μg/ml): 89.2%
OD(A570 nm) (U251; 100 μg/ml): 0.094 ± 0.007
IR (%) (A459; 3.125 μg/ml): −0.7%
OD(A570 nm) (A459; 3.125 μg/ml): 0.642 ± 0.073
IR (%) (A459; 6.25 μg/ml): −3.9%
OD(A570 nm) (A459; 6.25 μg/ml): 0.662 ± 0.031
IR (%) (A459; 12.5 μg/ml): 56.2%
OD(A570 nm) (A459; 12.5 μg/ml): 0.279 ± 0.014
IR (%) (A459; 25 μg/ml): 81.5%
OD(A570 nm) (A459; 25 μg/ml): 0.118 ± 0.027
IR (%) (A459; 50 μg/ml): 89.2%
OD(A570 nm) (A459; 50 μg/ml): 0.069 ± 0.010
IR (%) (A459; 100 μg/ml): 87.1%
OD(A570 nm) (A459; 100 μg/ml): 0.082 ± 0.015
IC50 (A459; [1]): 6.3 to 7.13 µg/mL (≈ 15.6 to 17.7 µM)
IC50 (A459; [2]): 6.72 µg/mL (≈ 16.7 µM)
